Reference: patent US20230278972A1, “SUBSTITUTED HALOALKYL SULFONANILIDE HERBICIDES” (FMC Corporation, priority 2020, published 2023)

Assays:
Type in all cases: in vivo
[1] = system: blackgrass (Alopecurus myosuroides); assay: Test A1 preemergence, blackgrass
Summary of the method: (§1)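 Plants grown in pots of loam/sand mix; preemergence = soil-directed spray on seeded pots, postemergence = spray at 1–2 leaves, height 2–10 cm; test chemicals formulated in non-phytotoxic solvent with surfactant.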

corn (Zea mays) [2] = assay: Test A1 preemergence, corn
Summary of the method: as §1

[3] = system: Foxtail, Giant (giant foxtail, Setaria faberi); assay: Test A1 preemergence, Foxtail, Giant
Summary of the method: as §1

[4] = system: goosegrass (Eleusine indica); assay: Test A1 preemergence, goosegrass
Summary of the method: as §1

kochia (Bassia scoparia) [5] = assay: Test A1 preemergence, kochia
Summary of the method: as §1

[6] = system: Oat, Wild (wild oat, Avena fatua); assay: Test A1 preemergence, Oat, Wild
Summary of the method: as §1

[7] = system: Pigweed, Palmer (palmer amaranth, palmer pigweed, Amaranthus palmeri); assay: Test A1 preemergence, Pigweed, Palmer
Summary of the method: as §1

[8] = system: ragweed (common ragweed, Ambrosia artemisiifolia); assay: Test A1 preemergence, ragweed
Summary of the method: as §1

[9] = system: Ryegrass, Italian (Italian ryegrass, Lolium multiflorum); assay: Test A1 preemergence, Ryegrass, Italian
Summary of the method: as §1

soybean (Glycine max) [10] = assay: Test A1 preemergence, soybean
Summary of the method: as §1

[11] = system: wheat (Triticum aestivum); assay: Test A1 preemergence, wheat
Summary of the method: as §1

[12] = system: blackgrass (Alopecurus myosuroides); assay: Test A1 postemergence, blackgrass; conditions: Postemergence, 0 to 100 scale (0 no effect, 100 complete control)
Summary of the method: (§2)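 Plants were grown in a loam soil/sand blend, with test chemicals formulated in a non-phytotoxic solvent mixture containing surfactant. Preemergence treatment (corn) was a directed soil spray at planting. Postemergence treatment was applied to plants 2 to 10 cm tall at the one- to two-leaf stage.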

corn (Zea mays) [13] = assay: Test A1 postemergence, corn; conditions: Postemergence
Summary of the method: as §1

[14] = system: Foxtail, Giant (giant foxtail, Setaria faberi); assay: Test A1 postemergence, Foxtail, Giant
Summary of the method: as §2

[15] = system: goosegrass (Eleusine indica); assay: Test A1 postemergence, goosegrass
Summary of the method: as §2

kochia (Bassia scoparia) [16] = assay: Test A1 postemergence, kochia
Summary of the method: as §2

[17] = system: Oat, Wild (wild oat, Avena fatua); assay: Test A1 postemergence, Oat, Wild
Summary of the method: as §1

[18] = system: Pigweed, Palmer (palmer amaranth, palmer pigweed, Amaranthus palmeri); assay: Test A1 postemergence, Pigweed, Palmer
Summary of the method: as §1

[19] = system: ragweed (common ragweed, Ambrosia artemisiifolia); assay: Test A1 postemergence, ragweed
Summary of the method: as §1

[20] = system: Ryegrass, Italian (Italian ryegrass, Lolium multiflorum); assay: Test A1 postemergence, Ryegrass, Italian
Summary of the method: as §2

soybean (Glycine max) [21] = assay: Test A1 postemergence, soybean
Summary of the method: as §2

[22] = system: wheat (Triticum aestivum); assay: Test A1 postemergence, wheat
Summary of the method: as §2

[23] = system: galium (catchweed bedstraw, Galium aparine); assay: Test A1 postemergence, galium
Summary of the method: as §2

[24] = system: horseweed (Erigeron canadensis); assay: Test A1 postemergence, horseweed; conditions: Postemergence, 125 g ai/ha; 0 to 100 scale
Summary of the method: as §2

[25] = system: barnyardgrass (Echinochloa crus-galli); assay: Test B1 flooded paddy test, barnyardgrass; conditions: 250 g ai/ha, Flood, applied to paddy water, 2-leaf stage, visually evaluated after 10 to 14 days
Description: (§3) A dash (-) response means no test result.

[26] = system: ducksalad (Heteranthera limosa); assay: Test B1 flooded paddy test, ducksalad; conditions: 250 g ai/ha, Flood, applied to paddy water, 2-leaf stage, visually evaluated after 10 to 14 days
Description: as §3

rice (Oryza sativa) = assay: Test B1 flooded paddy test, rice; conditions: 250 g ai/ha, Flood, applied to paddy water, 2-leaf stage, visually evaluated after 10 to 14 days
Description: as §3

[27] = 31 g ai/ha, 0 to 100 scale (0 no effect, 100 complete control)
[28] = 125 g ai/ha, 0 to 100 scale, 0 no effect, 100 complete control
[29] = 31 g ai/ha, postemergence, 0 to 100 scale (0 no effect, 100 complete control)
[30] = Postemergence, 125 g ai/ha, 0 to 100 scale

CCC1CC(c2cc(NS(=O)(=O)C(F)(F)F)c(C)cc2C)=NO1 (centres unmarked) [Compound 375]
Plant response rating, Blackgrass [1, 27]: 20
Plant response rating, Blackgrass [1, 28]: 50
Plant response rating, Corn (corn (Zea mays) [2]; [27]): 0
Plant response rating, Corn (corn (Zea mays) [2]; [28]): 70
Plant response rating, Foxtail, Giant [3, 27]: 10
Plant response rating, Foxtail, Giant [3, 28]: 90
Plant response rating, Goosegrass [4, 27]: 70
Plant response rating, Goosegrass [4, 28]: 100
Plant response rating, Kochia (kochia (Bassia scoparia) [5]; [27]): 0
Plant response rating, Kochia (kochia (Bassia scoparia) [5]; [28]): 70
Plant response rating, Oat, Wild [6, 27]: 0
Plant response rating, Oat, Wild [6, 28]: 20
Plant response rating, Pigweed, Palmer [7, 27]: 0
Plant response rating, Pigweed, Palmer [7, 28]: 80
Plant response rating, Ragweed [8, 27]: 0
Plant response rating, Ragweed [8, 28]: 20
Plant response rating, Ryegrass, Italian [9, 27]: 30
Plant response rating, Ryegrass, Italian [9, 28]: 80
Plant response rating, Soybean (soybean (Glycine max) [10]; [27]): 0
Plant response rating, Soybean (soybean (Glycine max) [10]; [28]): 30
Plant response rating, Wheat [11, 27]: 0
Plant response rating, Wheat [11, 28]: 100
Plant response rating, Blackgrass ([12]; 31 g ai/ha, 10 days): 0
Plant response rating, Blackgrass ([12]; 125 g ai/ha): 0
Plant response rating, Corn (corn (Zea mays) [13]; 31 g ai/ha, 0 to 100 scale (0 no effect, 100 complete control), 10 days): 0
Plant response rating, Corn (corn (Zea mays) [13]; 125 g ai/ha, 0 to 100 scale): 0
Foxtail, Giant plant response rating [14, 29]: 0
Plant response rating, Foxtail, Giant [14, 30]: 10
Goosegrass plant response rating [15, 29]: 50
Plant response rating, Goosegrass [15, 30]: 90
Kochia plant response rating (kochia (Bassia scoparia) [16]; [29]): 0
Plant response rating, Kochia (kochia (Bassia scoparia) [16]; [30]): 60
Oat, Wild plant response rating [17, 29]: 0
Plant response rating, Oat, Wild [17, 30]: 0
Pigweed, Palmer plant response rating [18, 29]: 0
Plant response rating, Pigweed, Palmer [18, 30]: 20
Ragweed plant response rating [19, 29]: 0
Plant response rating, Ragweed [19, 30]: 50
Ryegrass, Italian plant response rating [20, 29]: 0
Plant response rating, Ryegrass, Italian [20, 30]: 40
Soybean plant response rating (soybean (Glycine max) [21]; [29]): 30
Plant response rating, Soybean (soybean (Glycine max) [21]; [30]): 60
Wheat plant response rating [22, 29]: 0
Plant response rating, Wheat [22, 30]: 70
Galium plant response rating [23, 29]: 10
Plant response rating, Galium [23, 30]: 20
Plant response rating, Horseweed [24]: 50
Plant response rating, Barnyardgrass (0 to 100 scale, 0 is no effect, 100 is complete control) [25]: 50
Plant response rating, Ducksalad (0 to 100 scale, 0 is no effect, 100 is complete control) [26]: 60
Plant response rating, Rice (0 to 100 scale, 0 is no effect, 100 is complete control) (rice (Oryza sativa)): 15
